# From patent US11077090B2, “Compounds and compositions and uses thereof” (Sunovion Pharmaceuticals Inc., priority 2016, dated 2021)
# Tested on: compound-treated mice
# Assay: Neuropharmacological assay (SmartCube): behavioral activity signature and minimal effective dose
# Format: in vivo
# Conditions: for minimal effective dose: Mus musculus, ip, MED = dose having 50% or more total activity, read-out: Potency: minimal effective dose (MED); for AD: ADHD (probability of activity signature) / AG: analgesic (probability of activity signature) / AX: anxiolytic (probability of activity signature) / CE: cognitive enhancer (probability of activity signature) / DP: anti-depressant (probability of activity signature) / MS: mood stabilizer (probability of activity signature) / PS: anti-psychotic (probability of activity signature) / SD: sedative hypnotic (probability of activity signature) / UN: uncharacterized CNS activity (probability of activity signature): i.p. 15 min before test, most efficacious dose(s)
# From the text: Neurosci. 2011 Sep. 9; 5:103 (doi: 10.3389/fnins.2011.00103) (“Roberds”). As reported in Roberds, because psychiatric diseases generally result from disorders of cell-cell communication or circuitry, intact systems are useful in detecting improvement in disease-relevant endpoints. These endpoints are typically behavioral in nature, often requiring human observation and interpretation. To facilitate testing of multiple compounds for behavioral effects relevant to psychiatric disease, PsychoGenics, Inc. (Tarrytown, N.Y., “PGI”) developed SmartCube™, an automated system in which behaviors of compound-treated mice are captured by digital video and analyzed with computer algorithms. (D. Brunner et al., Drug Discov. Today 2002, 7:S107-S112). PGI Analytical Systems uses data from SmartCube™ to compare the behavioral signature of a test compound to a database of behavioral signatures obtained using a large set of diverse reference compounds. (The composition of the database as well as validation of the method is further described in Roberds). In this way, the neuropharmacological effects of a test compound can be predicted by similarity to major classes of compounds, such as antipsychotics, anxiolytics and antidepressants.
# The SmartCube™ system produces an activity signature indicating the probability that the activity of the test compound at the administered dose matches a given class of neuropharmacological agents. (See, e.g., Roberds, FIGS. 2 and 3). The test compound is simultaneously compared against multiple classes of agents; thus, a separate probability is generated for each behavioral effect measured (e.g., anxiolytic activity, analgesic activity, etc.). In the table below, these probabilities are reported for each behavioral effect measured as follows:
# where LOQ is the limit of quantification.
# Provided compounds were dissolved in a mixture of Pharmasolve™ (N-methyl-2-pyrrolidone), polyethylene glycol and propylene glycol, and were injected i.p. 15 min. before the behavioral test. For each compound, injections were administered at 3 different doses. For each behavioral effect measured, results for the most efficacious dose(s) are presented. In the table below, DP: anti-depressant; AX: anxiolytic; SD: sedative hypnotic; PS: anti-psychotic; MS: mood stabilizer; AD: ADHD; CE: cognitive enhancer; AG: analgesic; UN: uncharacterized CNS activity.
# The potency of many of the compounds in the table was also determined in the SmartCube™ system. Test compounds were routinely examined at dose levels of 0.3, 1, 3, 10 and 30 mg per kg (mpk), although the dose range was increased or decreased if necessary to obtain a full dose response curve. A compound's minimal effective dose (MED) is a measure of the compounds potency. The MED was defined as the dose (in mpk) having 50% or more total activity in SmartCube.
compound,measurement,value
"C[C@H]1OCc2ccc3ccccc3c2[C@@H]1N.Cl (single isomer, unassigned) [Example 90]",minimal effective dose,10 to 30 mg/kg
same,AD: ADHD (probability of activity signature),+ (LOQ ≤ + <5%)
same,AG: analgesic (probability of activity signature),++ (5% ≤ ++ <25%)
same,AX: anxiolytic (probability of activity signature),+++ (25% ≤ +++ <50%)
same,CE: cognitive enhancer (probability of activity signature),++ (5% ≤ ++ <25%)
same,DP: anti-depressant (probability of activity signature),++ (5% ≤ ++ <25%)
same,MS: mood stabilizer (probability of activity signature),+ (LOQ ≤ + <5%)
same,PS: anti-psychotic (probability of activity signature),+ (LOQ ≤ + <5%)
same,SD: sedative hypnotic (probability of activity signature),++ (5% ≤ ++ <25%)
same,UN: uncharacterized CNS activity (probability of activity signature),+ (LOQ ≤ + <5%)
"C[C@@H]1OCc2ccc3ccccc3c2[C@@H]1N.Cl (single isomer, unassigned) [Example 91]",minimal effective dose,10 to 30 mg/kg
same,AD: ADHD (probability of activity signature),+ (LOQ ≤ + <5%)
same,AG: analgesic (probability of activity signature),++ (5% ≤ ++ <25%)
same,AX: anxiolytic (probability of activity signature),+ (LOQ ≤ + <5%)
same,CE: cognitive enhancer (probability of activity signature),++ (5% ≤ ++ <25%)
same,DP: anti-depressant (probability of activity signature),+ (LOQ ≤ + <5%)
same,MS: mood stabilizer (probability of activity signature),+ (LOQ ≤ + <5%)
same,PS: anti-psychotic (probability of activity signature),++ (5% ≤ ++ <25%)
same,SD: sedative hypnotic (probability of activity signature),++ (5% ≤ ++ <25%)
same,UN: uncharacterized CNS activity (probability of activity signature),+++ (25% ≤ +++ <50%)
"N[C@H]1COCc2ccccc21 (single isomer, unassigned) [Example 112]",minimal effective dose,10 to 30 mg/kg
same,AD: ADHD (probability of activity signature),+ (LOQ ≤ + <5%)
same,AG: analgesic (probability of activity signature),++ (5% ≤ ++ <25%)
same,AX: anxiolytic (probability of activity signature),++ (5% ≤ ++ <25%)
same,CE: cognitive enhancer (probability of activity signature),+++ (25% ≤ +++ <50%)
same,DP: anti-depressant (probability of activity signature),++ (5% ≤ ++ <25%)
same,MS: mood stabilizer (probability of activity signature),+ (LOQ ≤ + <5%)
same,PS: anti-psychotic (probability of activity signature),++ (5% ≤ ++ <25%)
same,SD: sedative hypnotic (probability of activity signature),+ (LOQ ≤ + <5%)
same,UN: uncharacterized CNS activity (probability of activity signature),+ (LOQ ≤ + <5%)
"N[C@@H]1COCc2ccc(F)cc21 (single isomer, unassigned) [Example 113]",minimal effective dose,3 to 10 mg/kg
same,AD: ADHD (probability of activity signature),+ (LOQ ≤ + <5%)
same,AG: analgesic (probability of activity signature),++ (5% ≤ ++ <25%)
same,AX: anxiolytic (probability of activity signature),++ (5% ≤ ++ <25%)
same,CE: cognitive enhancer (probability of activity signature),++ (5% ≤ ++ <25%)
same,DP: anti-depressant (probability of activity signature),++ (5% ≤ ++ <25%)
same,MS: mood stabilizer (probability of activity signature),+ (LOQ ≤ + <5%)
same,PS: anti-psychotic (probability of activity signature),++ (5% ≤ ++ <25%)
same,SD: sedative hypnotic (probability of activity signature),+ (LOQ ≤ + <5%)
same,UN: uncharacterized CNS activity (probability of activity signature),+++ (25% ≤ +++ <50%)
"Cc1ccc2c(c1)[C@H](N)CCOC2 (single isomer, unassigned) [Example 115]",minimal effective dose,3 to 10 mg/kg
same,AD: ADHD (probability of activity signature),+ (LOQ ≤ + <5%)
same,AG: analgesic (probability of activity signature),++ (5% ≤ ++ <25%)
same,AX: anxiolytic (probability of activity signature),++ (5% ≤ ++ <25%)
same,CE: cognitive enhancer (probability of activity signature),++ (5% ≤ ++ <25%)
same,DP: anti-depressant (probability of activity signature),++ (5% ≤ ++ <25%)
same,MS: mood stabilizer (probability of activity signature),+ (LOQ ≤ + <5%)
same,PS: anti-psychotic (probability of activity signature),+++ (25% ≤ +++ <50%)
same,SD: sedative hypnotic (probability of activity signature),++ (5% ≤ ++ <25%)
same,UN: uncharacterized CNS activity (probability of activity signature),+++ (25% ≤ +++ <50%)
"Cc1ccc2c(c1)[C@@H](N)CCOC2 (single isomer, unassigned) [Example 116]",minimal effective dose,3 to 10 mg/kg
same,AD: ADHD (probability of activity signature),+ (LOQ ≤ + <5%)
same,AG: analgesic (probability of activity signature),++ (5% ≤ ++ <25%)
same,AX: anxiolytic (probability of activity signature),++ (5% ≤ ++ <25%)
same,CE: cognitive enhancer (probability of activity signature),++ (5% ≤ ++ <25%)
same,DP: anti-depressant (probability of activity signature),++ (5% ≤ ++ <25%)
same,MS: mood stabilizer (probability of activity signature),+ (LOQ ≤ + <5%)
same,PS: anti-psychotic (probability of activity signature),++ (5% ≤ ++ <25%)
same,SD: sedative hypnotic (probability of activity signature),+++ (25% ≤ +++ <50%)
same,UN: uncharacterized CNS activity (probability of activity signature),+++ (25% ≤ +++ <50%)
"N[C@@H]1COCc2ccc(Cl)c(Cl)c21 (single isomer, unassigned) [Example 119]",minimal effective dose,< 3 mg/kg
same,AD: ADHD (probability of activity signature),+ (LOQ ≤ + <5%)
same,AG: analgesic (probability of activity signature),++ (5% ≤ ++ <25%)
same,AX: anxiolytic (probability of activity signature),+++ (25% ≤ +++ <50%)
same,CE: cognitive enhancer (probability of activity signature),++ (5% ≤ ++ <25%)
same,DP: anti-depressant (probability of activity signature),++ (5% ≤ ++ <25%)
same,MS: mood stabilizer (probability of activity signature),+ (LOQ ≤ + <5%)
same,PS: anti-psychotic (probability of activity signature),++ (5% ≤ ++ <25%)
same,SD: sedative hypnotic (probability of activity signature),++ (5% ≤ ++ <25%)
same,UN: uncharacterized CNS activity (probability of activity signature),++++ (50% ≤ ++++)
"N[C@H]1COCc2ccc(Cl)c(Cl)c21 (single isomer, unassigned) [Example 120]",minimal effective dose,3 to 10 mg/kg
same,AD: ADHD (probability of activity signature),+ (LOQ ≤ + <5%)
same,AG: analgesic (probability of activity signature),++ (5% ≤ ++ <25%)
same,AX: anxiolytic (probability of activity signature),+++ (25% ≤ +++ <50%)
same,CE: cognitive enhancer (probability of activity signature),++ (5% ≤ ++ <25%)
same,DP: anti-depressant (probability of activity signature),++ (5% ≤ ++ <25%)
same,MS: mood stabilizer (probability of activity signature),+ (LOQ ≤ + <5%)
same,PS: anti-psychotic (probability of activity signature),++ (5% ≤ ++ <25%)
same,SD: sedative hypnotic (probability of activity signature),++ (5% ≤ ++ <25%)
same,UN: uncharacterized CNS activity (probability of activity signature),++ (5% ≤ ++ <25%)
"COc1ccc2c(c1)[C@H](N)COC2 (single isomer, unassigned) [Example 121]",minimal effective dose,< 3 mg/kg
same,AD: ADHD (probability of activity signature),+ (LOQ ≤ + <5%)
same,AG: analgesic (probability of activity signature),++ (5% ≤ ++ <25%)
same,AX: anxiolytic (probability of activity signature),++ (5% ≤ ++ <25%)
same,CE: cognitive enhancer (probability of activity signature),++ (5% ≤ ++ <25%)
same,DP: anti-depressant (probability of activity signature),++ (5% ≤ ++ <25%)
same,MS: mood stabilizer (probability of activity signature),+ (LOQ ≤ + <5%)
same,PS: anti-psychotic (probability of activity signature),++ (5% ≤ ++ <25%)
same,SD: sedative hypnotic (probability of activity signature),++ (5% ≤ ++ <25%)
same,UN: uncharacterized CNS activity (probability of activity signature),+++ (25% ≤ +++ <50%)
"COc1ccc2c(c1)[C@@H](N)COC2 (single isomer, unassigned) [Example 122]",minimal effective dose,< 3 mg/kg
same,AD: ADHD (probability of activity signature),+ (LOQ ≤ + <5%)
same,AG: analgesic (probability of activity signature),++ (5% ≤ ++ <25%)
same,AX: anxiolytic (probability of activity signature),+++ (25% ≤ +++ <50%)
same,CE: cognitive enhancer (probability of activity signature),+++ (25% ≤ +++ <50%)
same,DP: anti-depressant (probability of activity signature),++ (5% ≤ ++ <25%)
same,MS: mood stabilizer (probability of activity signature),+ (LOQ ≤ + <5%)
same,PS: anti-psychotic (probability of activity signature),++ (5% ≤ ++ <25%)
same,SD: sedative hypnotic (probability of activity signature),++ (5% ≤ ++ <25%)
same,UN: uncharacterized CNS activity (probability of activity signature),+++ (25% ≤ +++ <50%)
"Cc1cc(C)c2c(c1)[C@H](N)COC2 (single isomer, unassigned) [Example 125]",minimal effective dose,< 3 mg/kg
same,AD: ADHD (probability of activity signature),+ (LOQ ≤ + <5%)
same,AG: analgesic (probability of activity signature),+ (LOQ ≤ + <5%)
same,AX: anxiolytic (probability of activity signature),++ (5% ≤ ++ <25%)
same,CE: cognitive enhancer (probability of activity signature),++ (5% ≤ ++ <25%)
same,DP: anti-depressant (probability of activity signature),++ (5% ≤ ++ <25%)
same,MS: mood stabilizer (probability of activity signature),+ (LOQ ≤ + <5%)
same,PS: anti-psychotic (probability of activity signature),++ (5% ≤ ++ <25%)
same,SD: sedative hypnotic (probability of activity signature),++ (5% ≤ ++ <25%)
same,UN: uncharacterized CNS activity (probability of activity signature),++++ (50% ≤ ++++)
"Cc1cc(C)c2c(c1)[C@@H](N)COC2 (single isomer, unassigned) [Example 126]",minimal effective dose,< 3 mg/kg
same,AD: ADHD (probability of activity signature),+ (LOQ ≤ + <5%)
same,AG: analgesic (probability of activity signature),++ (5% ≤ ++ <25%)
same,AX: anxiolytic (probability of activity signature),++ (5% ≤ ++ <25%)
same,CE: cognitive enhancer (probability of activity signature),++ (5% ≤ ++ <25%)
same,DP: anti-depressant (probability of activity signature),++ (5% ≤ ++ <25%)
same,MS: mood stabilizer (probability of activity signature),+ (LOQ ≤ + <5%)
same,PS: anti-psychotic (probability of activity signature),+++ (25% ≤ +++ <50%)
same,SD: sedative hypnotic (probability of activity signature),+ (LOQ ≤ + <5%)
same,UN: uncharacterized CNS activity (probability of activity signature),++++ (50% ≤ ++++)
